Measured values from patent US9757393B2 (priority 2015, dated 2017).

Assays:
HFD-fed C57BL/6J mice [1] = assay: Body weight, food intake and tissue weight in HFD-fed mice; format: in vivo; settings: oral gavage daily for 4 weeks
Procedure: (§1) Experimental Animals: the experiments are conducted under the guidelines of the Institutional Animal Care and Use Committee of Central Taiwan University of Science and Technology. As previously described, four-week-old male C57BL/6J mice (n=63) is purchased from the National Laboratory Animal Breeding and Research Center, Ministry of Science and Technology. After 1-week of acclimatization, mice are designed to initiate the study, and the study lasts for 12 weeks. […] The CON group and high-fat control (HF) group are given with vehicle only. The low-fat diet consisted of fat 10%, whereas the high-fat diet (HFD) consisted of fat 45% (of total energy, % kcal). The compositions of the experimental diets are shown as described. At the end of the study, food is derived from the animals (from 10 p.m. to 10 a.m.). On the next day, the mice are sacrificed, and blood and tissue are collected for analysis. Livers, skeletal muscles, and white adipose tissues (WATs) (including epididymal, mesenteric and retroperitoneal WAT) are excised and weighed, and then immediately stored in a freezer at −80° C. Heparin (30 units/mL) (Sigma) is added to blood samples. Plasma samples are collected by centrifugation at 1600 g for 15 min at 4° C. within 30 min, and plasma is obtained for insulin and leptin level analysis.
Body Weight, Food Intake and Tissue Weight. Throughout the embodiment, body weight and food intake are daily recorded at the same time. Body weight gain is defined as the difference between 1 day and the next day. The pellet food is weighed and placed in a cage food container. After 24 h, the remaining food is weighed and the crumbs are collected as much as possible. Based on the difference between 1 day and the next day, the daily food intake is calculated.

HFD-fed C57BL/6J mice [2] = assay: Histopathology examination of epididymal WAT and liver tissue; format: in vivo; settings: oral gavage daily for 4 weeks
Procedure: as §1
A portion of the collected epididymal WAT and liver tissue is fixed with formalin (200 g/kg) neutral buffered solution and embedded in paraffin. Sections (8 μm) are cut and stained with hematoxylin and eosin. A microscope (Leica, DM2500) and Leica Digital camera (DFC-425-C) are used for microscopic examination and images taken, respectively.

HFD-fed C57BL/6J mice [3] = assay: Blood glucose, HbA1c, blood lipids, insulin and leptin levels in HFD-fed mice; format: in vivo; settings: for Blood Profiles FFA / Blood Profiles HDL-C / Blood Profiles HbA1c / Blood Profiles LDL-C: oral gavage daily for 4 weeks
Procedure: as §1
Blood Glucose and HbA1c Levels. Blood samples (0.8 mL) are collected from the retro-orbital sinuses of fasting mice, and glucose level is measured by the glucose oxidase method (model 1500; Sidekick Glucose Analyzer; YSI Inc., Yellow Springs, Ohio, USA). Percent HbA1c is detected with a Hemoglobin A1c kit (BioSystems S.A., Barcelona, Spain). Plasma triglycerides (TG), total cholesterol (TC), free fatty acids (FFA), high-density lipoprotein cholesterol (HDL-C), and low density lipoprotein cholesterol (LDL-C) are determined using commercial assay kits (Triglycerides-E test, Cholesterol-E test, and FFA-C test, Wako Pure Chemical, Osaka, Japan; HDL-C-test and LDL-C-test, Roche Diagnostics GmbH, Indianapolis, USA) according to their instructions. A mouse insulin ELISA kit (Sibayagi, Gunma, Japan) and mouse leptin ELISA kit (Morinaga, Yokohama, Japan) are used to measure blood insulin and leptin levels, respectively.

HFD-fed C57BL/6J mice [4] = assay: Hepatic lipid in HFD-fed mice; format: in vivo; settings: oral gavage daily for 4 weeks
Procedure: as §1
Blood Lipid and Hepatic Lipid. Hepatic lipids are extracted as previously described. Liver sample (0.375 g) is homogenized with 1 mL of distilled water for 5 min for the hepatic lipid extraction and analyzed using a triglycerides kit as used for serum lipids.

membrane GLUT4 = assay: Western blotting of membrane GLUT4 in skeletal muscle; format: in vivo, C57BL/6J mice; settings: HFD-fed mice, 10 mg/kg/day
Procedure: as §1
Protein extractions and immunoblots for the determination of membrane GLUT4, phospho-AMPK (Thr172), and phospho-Akt (Ser 473) proteins are carried out on frozen skeletal muscle and liver tissue from mice, which follows a previous paper. Additionally, membrane GLUT4 is carried out on frozen skeletal muscle from mice, and the total membrane fractions are collected with buffer and centrifuged as a previously described. The protein contents of membrane GLUT4, phospho-AMPK, phospho-Akt, total AMPK, and total Akt are detected by western blotting. Western blotting has been determined as described elsewhere. Subsequently, antibodies are detected using horseradish peroxidase linked to a goat anti-IgG rabbit secondary antibody and visualized using an ECL system. Membrane GLUT4, structural proteins GAPDH and β-actin are purchased from Santa Cruz Biotechnology (Santa Cruz, Calif., USA); phospho-AMPK was obtained from Abcam Inc. (Cambridge, Mass., USA); phospho-Akt, total AMPK, and total Akt are from Cell Signaling Technology, Inc. (Danver Mass., USA); the BCA protein assay kit is from Thermo Scientific (Rockford, Ill., USA); and the ECL reagent kit is from GE Healthcare BioSciences (Buckinghamshire, UK). The secondary antibody antirabbit is from Jackson ImmunoResearch Laboratories, Inc. (West Grove, Pa., USA). The density blotting is analyzed using Alpha Easy FC software (Alpha Innotech Corp., Randburg, South Africa). Structural proteins GAPDH and β-actin are obtained by stripping the nitrocellulose membrane proteins of liver and skeletal muscle, respectively.

SMILES: CC(C)OC(=O)C(C)(C)Oc1ccc(C(=O)c2ccc(Cl)cc2)cc1 [Feno, fenofibrate, reference compound]
- Absolute Tissue Weight BAT (HFD-fed C57BL/6J mice [1]; 250 mg/kg/day): 0.142 ± 0.012 g
- Absolute Tissue Weight EWAT (HFD-fed C57BL/6J mice [1]; 250 mg/kg/day): 0.924 ± 0.069 g
- Absolute Tissue Weight Liver (HFD-fed C57BL/6J mice [1]; 250 mg/kg/day): 1.046 ± 0.033 g
- Absolute Tissue Weight MWAT (HFD-fed C57BL/6J mice [1]; 250 mg/kg/day): 0.295 ± 0.009 g
- Absolute Tissue Weight RWAT (HFD-fed C57BL/6J mice [1]; 250 mg/kg/day): 0.249 ± 0.028 g
- Absolute Tissue Weight Skeletal muscle (HFD-fed C57BL/6J mice [1]; 250 mg/kg/day): 0.569 ± 0.069 g
- weight gain (HFD-fed C57BL/6J mice [1]; 250 mg/kg/day): 0.69 ± 0.63 g
- average area of adipocytes (epididymal WAT) (HFD-fed C57BL/6J mice [2]; 250 mg/kg/day): 4175.4±322.9 μm2
- decrease of the circulating TG level (HFD-fed C57BL/6J mice [3]; 250 mg/kg/day): 47.9%
- Blood Profiles FFA (HFD-fed C57BL/6J mice [3]; 250 mg/kg/day): 0.94 ± 0.08 meq/L
- Blood Profiles HDL-C (HFD-fed C57BL/6J mice [3]; 250 mg/kg/day): 80.3 ± 4.5 mg/dL
- Blood Profiles HbA1c (HFD-fed C57BL/6J mice [3]; 250 mg/kg/day): 6.4 ± 0.7 %
- Blood Profiles LDL-C (HFD-fed C57BL/6J mice [3]; 250 mg/kg/day): 105.8 ± 10.4 mg/dL
- Liver Lipids total lipid (HFD-fed C57BL/6J mice [4]; 250 mg/kg/day): 63.8 ± 4.7 mg/g
- Liver Lipids triacylglycerol (HFD-fed C57BL/6J mice [4]; 250 mg/kg/day): 48.4 ± 5.6 µmol/g

SMILES: CN(CCOc1ccc(CC2SC(=O)NC2=O)cc1)c1ccccn1 (stereo not drawn) [Rosi, rosiglitazone, reference compound]
- Absolute Tissue Weight BAT (HFD-fed C57BL/6J mice [1]; 10 mg/kg/day): 0.175 ± 0.018 g
- Absolute Tissue Weight EWAT (HFD-fed C57BL/6J mice [1]; 10 mg/kg/day): 0.813 ± 0.069 g
- Absolute Tissue Weight Liver (HFD-fed C57BL/6J mice [1]; 10 mg/kg/day): 0.816 ± 0.038 g
- Absolute Tissue Weight MWAT (HFD-fed C57BL/6J mice [1]; 10 mg/kg/day): 0.257 ± 0.019 g
- Absolute Tissue Weight RWAT (HFD-fed C57BL/6J mice [1]; 10 mg/kg/day): 0.244 ± 0.042 g
- Absolute Tissue Weight Skeletal muscle (HFD-fed C57BL/6J mice [1]; 10 mg/kg/day): 0.737 ± 0.094 g
- weight gain (HFD-fed C57BL/6J mice [1]; 10 mg/kg/day): 1.71 ± 0.56 g
- enhancement of muscular membrane GLUT4 protein (membrane GLUT4): ~2.1 fold
- average area of adipocytes (epididymal WAT) (HFD-fed C57BL/6J mice [2]; 10 mg/kg/day): 5598.6±162.7 μm2
- Blood Profiles FFA (HFD-fed C57BL/6J mice [3]; 10 mg/kg/day): 1.00 ± 0.09 meq/L
- Blood Profiles HDL-C (HFD-fed C57BL/6J mice [3]; 10 mg/kg/day): 73.1 ± 5.8 mg/dL
- Blood Profiles HbA1c (HFD-fed C57BL/6J mice [3]; 10 mg/kg/day): 6.2 ± 0.4 %
- Blood Profiles LDL-C (HFD-fed C57BL/6J mice [3]; 10 mg/kg/day): 86.7 ± 7.7 mg/dL
- Liver Lipids total lipid (HFD-fed C57BL/6J mice [4]; 10 mg/kg/day): 65.1 ± 5.3 mg/g
- Liver Lipids triacylglycerol (HFD-fed C57BL/6J mice [4]; 10 mg/kg/day): 44.5 ± 3.2 µmol/g
